Data on 25 compounds can be found in US20170121344A1 (Siga Technologies, Inc., priority 2009, published 2017).

One assay deals with DENV-1. Description: Viral yield assay against DENV-1 in Vero cells. It is filed as cell-based. The conditions noted are these: Dengue virus, DENV1, viral yield assay. The method, boiled down:
(§1)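 Vero cells were infected with dengue virus at an MOI of 0.1, treated with compound or DMSO vehicle, and kept at 37° C. Supernatant virus was harvested 48 hours post infection and titered on Vero cells, with EC50 derived from yield reduction.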

For assay [1], the system named is Dengue-2 (Strain New Guinea C). Description: Viral yield assay against Dengue-2 in Vero cells. Format: cell-based, Dengue virus. The conditions noted are these: Dengue virus, read-out: Activity (EC50 in μM) DENV-2. The method, boiled down:
as §1

A further assay relates to DENV-3. Description: Viral yield assay against DENV-3 in Vero cells. It is filed as cell-based. Particulars: Dengue virus, DENV3, viral yield assay. The essentials: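 Yield reduction, Vero; MOI 0.1; compound vs DMSO; 37° C; harvest 48 h p.i.; titer on Vero; EC50 fitted. Other serotypes run the same way.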
The test system of a further assay is DENV-4. As to the kind of experiment: Viral yield assay against DENV-4 in Vero cells. Particulars: Dengue virus, DENV4, viral yield assay. It is filed as cell-based. The method, boiled down: as §1
The mark [2] stands for this setting: DENV2, viral yield assay, Vero cells, MOI 0.1, 48 hours post infection.

Structures are written as SMILES. Like-named read-outs stand apart in the source and are kept apart here. Where only a bound is given, the exact number is not on record here.

One may read the EC50 as the concentration giving half of the maximal effect. For the compound `COc1ccc(-c2ccc3c(N)c(C(=O)Nc4ccc(F)cc4)sc3n2)cc1` [Compound 491, 3-amino-N-(4-fluorophenyl)-6-(4-methoxyphenyl)thieno[2,3-b]pyridine-2-carboxamide], the concentration giving a half-maximal response (EC50) in the assay with DENV-1 is > 25 µM; in assay [1] (DENV2, Vero, 48 h) it was < 5 µM; in the assay with DENV-3, 5 to 25 µM; with DENV-4, < 5 µM.
With `COc1ccc(-c2ccc3c(N)c(C(=O)Nc4ccc(C(F)(F)F)cc4)sc3n2)cc1` [Compound 492, 3-amino-6-(4-methoxyphenyl)-N-[4-(trifluoromethyl)phenyl]thieno[2,3-b] pyridine-2-carboxamide], the EC50 (in the assay on DENV-1; in assay [1] (setting [2]); in the assay with DENV-3; in the assay with DENV-4) was < 5 µM in each case.
Consider `COc1ccc(-c2ccc3c(N)c(C(=O)Nc4ccc(Cl)cc4)sc3n2)cc1` [Compound 493, 3-amino-N-(4-chlorophenyl)-6-(4-methoxyphenyl)thieno[2,3-b]pyridine-2-carboxamide], for which the EC50 (in the assay on DENV-1; in assay [1] (setting [2]); in the assay on DENV-3; with DENV-4) was < 5 µM each time.
With `COc1ccc(-c2ccc3c(N)c(C(=O)Nc4ccc(C(C)=O)cc4)sc3n2)cc1` [Compound 494, N-(4-acetylphenyl)-3-amino-6-(4-methoxyphenyl)thieno[2,3-b]pyridine-2-carboxamide], the concentration giving a half-maximal response (EC50) in the assay with DENV-1 was < 5 µM; in assay [1] (DENV2, Vero, 48 h), < 5 µM; in the assay on DENV-3 it was 5 to 25 µM; in the assay on DENV-4 it was < 5 µM.
In the case of `COc1cccc(-c2ccc3c(N)c(C(=O)Nc4cc(Cl)ccc4Cl)sc3n2)c1` [Compound 495, 3-amino-N-(2,5-dichlorophenyl)-6-(3-methoxyphenyl)thieno[2,3-b]pyridine-2-carboxamide], the EC50 (with DENV-1; in assay [1] (setting [2]); in the assay with DENV-3; with DENV-4) was < 5 µM each time.
As to `Cc1cc(Br)ccc1NC(=O)c1sc2nc(-c3ccc4c(c3)OCO4)ccc2c1N` [Compound 497, 3-amino-6-(1,3-benzodioxol-5-yl)-N-(4-bromo-2-methyl-phenyl)thieno[2,3-b] pyridine-2-carboxamide], the EC50 (in the assay with DENV-1; in assay [1] (setting [2]); with DENV-3; with DENV-4) was < 5 µM throughout.
As to `COc1cccc(-c2ccc3c(N)c(C(=O)Nc4ccc(Cl)c(C(F)(F)F)c4)sc3n2)c1` [Compound 498, 3-amino-N-[4-chloro-3-(trifluoromethyl)phenyl]-6-(3-methoxyphenyl)thieno [2,3-b]pyridine-2-carboxamide], the EC50 (in the assay on DENV-1; in assay [1] (setting [2]); in the assay on DENV-3; with DENV-4) was < 5 µM throughout.
Turning to `COc1ccc(NC(=O)c2sc3nc(-c4cccc(OC)c4)ccc3c2N)cc1` [Compound 506, 3-amino-6-(3-methoxyphenyl)-N-(4-methoxyphenyl)thieno[2,3-b]pyridine-2-carboxamide], the half-maximal effective concentration (EC50) (in the assay on DENV-1; in assay [1] (setting [2]); in the assay with DENV-3; in the assay on DENV-4) was < 5 µM each time.
For the compound `COc1cccc(-c2ccc3c(N)c(C(=O)Nc4ccc(OC)cc4C)sc3n2)c1` [Compound 507, 3-amino-N-(4-methoxy-2-methyl-phenyl)-6-(3-methoxyphenyl)thieno[2,3-b] pyridine-2-carboxamide], the concentration giving a half-maximal response (EC50) (in the assay on DENV-1; in assay [1] (setting [2]); in the assay on DENV-3; in the assay on DENV-4) was < 5 µM throughout.
`COc1cccc(-c2ccc3c(N)c(C(=O)Nc4ccc(F)cc4)sc3n2)c1` [Compound 510, 3-amino-N-(4-fluorophenyl)-6-(3-methoxyphenyl)thieno[2,3-b]pyridine-2-carboxamide]: the EC50 with DENV-1 was < 5 µM; in assay [1] (DENV2, Vero, 48 h) it was < 5 µM; in the assay with DENV-3, < 5 µM; in the assay on DENV-4, < 5 µM.
Consider `COc1cccc(-c2ccc3c(N)c(C(=O)Nc4ccc(OC)cc4OC)sc3n2)c1` [Compound 512, 3-amino-N-(2,4-dimethoxyphenyl)-6-(3-methoxyphenyl)thieno[2,3-b]pyridine-2-carboxamide], for which the half-maximal effective concentration (EC50) (in the assay with DENV-1; in assay [1] (setting [2]); in the assay with DENV-3; in the assay with DENV-4) was < 5 µM each time.
Consider `Cc1ccc(NC(=O)c2sc3nc(-c4ccc5c(c4)OCO5)ccc3c2N)c(Br)c1` [Compound 514, 3-amino-6-(1,3-benzodioxol-5-yl)-N-(2-bromo-4-methyl-phenyl)thieno[2,3-b] pyridine-2-carboxamide], for which the EC50 (in the assay with DENV-1; in assay [1] (setting [2]); in the assay with DENV-3; with DENV-4) was < 5 µM in each case.
With `COc1cccc(-c2ccc3c(N)c(C(=O)Nc4ccccc4Oc4ccccc4)sc3n2)c1` [Compound 522, 3-amino-6-(3-methoxyphenyl)-N-(2-phenoxyphenyl)thieno[2,3-b]pyridine-2-carboxamide], the EC50 (in the assay with DENV-1; in assay [1] (setting [2]); in the assay with DENV-3; in the assay on DENV-4) was < 5 µM in each case.
For the compound `Cc1ccc(NC(=O)c2sc3nc(-c4ccc5c(c4)OCO5)ccc3c2N)cc1Cl` [Compound 529, 3-amino-6-(1,3-benzodioxol-5-yl)-N-(3-chloro-4-methyl-phenyl)thieno[2,3-b] pyridine-2-carboxamide], the EC50 (in the assay with DENV-1; in assay [1] (setting [2]); in the assay with DENV-3; in the assay on DENV-4) was < 5 µM throughout.
On to `COc1ccc(-c2ccc3c(N)c(C(=O)Nc4ccc(C)cc4C)sc3n2)cc1OC` [Compound 530, 3-amino-6-(3,4-dimethoxyphenyl)-N-(2,4-dimethylphenyl)thieno[2,3-b]pyridine-2-carboxamide], for which the EC50 (in the assay on DENV-1; in assay [1] (setting [2]); with DENV-3; in the assay with DENV-4) was < 5 µM throughout.
For the compound `COc1ccc(Cl)cc1NC(=O)c1sc2nc(-c3ccc(OC)c(OC)c3)ccc2c1N` [Compound 532, 3-amino-N-(5-chloro-2-methoxy-phenyl)-6-(3,4-dimethoxyphenyl)thieno[2,3-b] pyridine-2-carboxamide], the EC50 (in the assay with DENV-1; in assay [1] (setting [2]); in the assay on DENV-3; with DENV-4) was < 5 µM throughout.
With `COc1ccc(-c2ccc3c(N)c(C(=O)Nc4ccc(C)c(F)c4)sc3n2)cc1OC` [Compound 533, 3-amino-6-(3,4-dimethoxyphenyl)-N-(3-fluoro-4-methyl-phenyl)thieno[2,3-b] pyridine-2-carboxamide], the EC50 (in the assay on DENV-1; in assay [1] (setting [2]); with DENV-3; in the assay with DENV-4) was < 5 µM throughout.
Take `COc1ccc(-c2ccc3c(N)c(C(=O)Nc4ccc(Cl)cc4F)sc3n2)cc1OC` [Compound 534, 3-amino-N-(4-chloro-2-fluoro-phenyl)-6-(3,4-dimethoxyphenyl)thieno[2,3-b] pyridine-2-carboxamide]: the concentration for a half-maximal effect (EC50) (with DENV-1; in assay [1] (setting [2]); in the assay on DENV-3; with DENV-4) was < 5 µM each time.
On to `COc1ccc(NC(=O)c2sc3nc(-c4ccc(F)cc4)ccc3c2N)cc1` [Compound 535, 3-amino-6-(4-fluorophenyl)-N-(4-methoxyphenyl)thieno[2,3-b]pyridine-2-carboxamide], for which the half-maximal effective concentration (EC50) (with DENV-1; in assay [1] (setting [2]); in the assay with DENV-3; in the assay with DENV-4) was < 5 µM each time.
Turning to `C=CCSc1ccc(NC(=O)c2sc3nc(-c4cccc(OC)c4)ccc3c2N)cc1` [Compound 542, N-(4-allylsulfanylphenyl)-3-amino-6-(3-methoxyphenyl)thieno[2,3-b]pyridine-2-carboxamide], the EC50 (with DENV-1; in assay [1] (setting [2]); with DENV-3; in the assay on DENV-4) was < 5 µM each time.
As to `COc1cccc(-c2ccc3c(N)c(C(=O)Nc4cccc(Cl)c4C)sc3n2)c1` [Compound 543, 3-amino-N-(3-chloro-2-methyl-phenyl)-6-(3-methoxyphenyl)thieno[2,3-b] pyridine-2-carboxamide], the EC50 (in the assay with DENV-1; in assay [1] (setting [2]); in the assay with DENV-3; in the assay on DENV-4) was < 5 µM each time.
Regarding `COc1cccc(-c2ccc3c(N)c(C(=O)Nc4ccc(C)c(C)c4)sc3n2)c1` [Compound 546, 3-amino-N-(3,4-dimethylphenyl)-6-(3-methoxyphenyl)thieno[2,3-b]pyridine-2-carboxamide], the EC50 (in the assay on DENV-1; in assay [1] (setting [2]); in the assay on DENV-3; in the assay with DENV-4) was < 5 µM each time.
As for `COc1cccc(-c2ccc3c(N)c(C(=O)Nc4cccc(C)c4)sc3n2)c1` [Compound 547, 3-amino-6-(3-mehtoxyphenyl)-N-(m-tolyl)thieno[2,3-b]pyridine-2-carboxamide], the EC50 (in the assay with DENV-1; in assay [1] (setting [2]); with DENV-3; in the assay on DENV-4) was < 5 µM throughout.
Turning to `COc1cccc(-c2ccc3c(N)c(C(=O)Nc4ccc(Br)c(C)c4)sc3n2)c1` [Compound 550, 3-amino-N-(4-bromo-3-methyl-phenyl)-6-(3-methoxyphenyl)thieno[2,3-b] pyridine-2-carboxamide], the EC50 (with DENV-1; in assay [1] (setting [2]); in the assay on DENV-3; in the assay on DENV-4) was < 5 µM each time.
Turning to `CCC(C)c1ccc(NC(=O)c2sc3nc(-c4cccc(OC)c4)ccc3c2N)cc1` (stereo not shown) [Compound 555, 3-amino-6-(3-methoxyphenyl)-N-(4-sec-butylphenyl)thieno[2,3-b]pyridine-2-carboxamide], the EC50 (with DENV-1; in assay [1] (setting [2]); with DENV-3; with DENV-4) was < 5 µM throughout.
